In ChEMBL document CHEMBL5257083, “Identification of a Noxo1 inhibitor by addition of a polyethylene glycol chain” (Bioorg Med Chem, 2023):
Active and inactive are the calls of the source. The calls are words filed in the database; no cut-off is given here.

What was measured:
Keratinocyte [1] = assay: Cytotoxicity against human Keratinocyte incubated for 48 hrs by MTT assay; type: toxicity, cell-based
[2] = Cytotoxicity against human Keratinocyte assessed as cell viability at 1 uM incubated for 48 hrs by MTT assay (reference value: 100 + /-7 %); type: toxicity, cell-based; details: keratinocytes, read-out: Activity
[3] = Inhibition of 6His tagged NOXO1 (149 to 286 residues) (unknown origin) expressed in Escherichia coli BL21 (DE3)-CYBA (unknown origin) protein-protein interaction assessed as apparent dissociation constant at 800 uM by isothermal titration calorimetry; parameters: species or system Homo sapiens; details: read-out: Kd(app)
[4] = Inhibition of 6His tagged NOXO1 (149 to 286 residues) (unknown origin) expressed in Escherichia coli BL21 (DE3)-CYBA (unknown origin) protein-protein interaction assessed as apparent dissociation constant at 200 uM by isothermal titration calorimetry; parameters: species or system Homo sapiens; details: read-out: Kd(app)
Homo sapiens = organism: Homo sapiens; assay: Inhibition of 6His tagged NOXO1 (149 to 286 residues) (unknown origin) expressed in Escherichia coli BL21 (DE3)-CYBA (unknown origin) protein-protein interaction by MALDI-TOF-MS analysis
[5] = Cytoprotective activity in human Keratinocyte assessed as decrease in UV-radiation induced DNA damage by measuring CPD intensity preincubated for 24 hrs followed by UV exposure and measured after 24 hrs by immunohistological analysis (reference value: 0.003 a.u.); type: functional; details: time 48 hrs
[6] = target: T1, NADPH oxidase organizer 1 (Homo sapiens) (UniProt Q8NFA2); assay: Binding affinity to 6His tagged NOXO1 (149 to 286 residues) (unknown origin) expressed in Escherichia coli BL21 (DE3) assessed as change in enthalpy at 800 uM by isothermal titration calorimetry
T1 sequence (whole entry): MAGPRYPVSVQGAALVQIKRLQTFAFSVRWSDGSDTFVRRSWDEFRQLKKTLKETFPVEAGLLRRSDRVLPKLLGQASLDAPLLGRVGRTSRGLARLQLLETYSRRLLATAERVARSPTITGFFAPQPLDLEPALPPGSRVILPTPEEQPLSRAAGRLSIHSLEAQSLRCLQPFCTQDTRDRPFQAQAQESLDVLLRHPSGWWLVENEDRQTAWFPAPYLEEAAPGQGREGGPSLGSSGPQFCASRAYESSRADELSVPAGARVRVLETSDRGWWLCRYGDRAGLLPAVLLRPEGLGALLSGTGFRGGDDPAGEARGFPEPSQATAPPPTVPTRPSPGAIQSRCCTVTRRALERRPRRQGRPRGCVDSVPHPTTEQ

Keratinocyte [7] = assay: Cytoprotective activity in human Keratinocyte assessed as effect on CPD intensity incubated for 24 hrs by immunohistological analysis; type: functional, cell-based
[8] = Cytoprotective activity in human Keratinocyte assessed as fold decrease in UV-radiation induced DNA damage preincubated for 24 hrs followed by UV exposure and measured after 24 hrs by immunohistological analysis; type: functional; details: time 48 hrs

| inhibition (Homo sapiens) | deltaH [6] [kcal/mol] | Structure (SMILES) | Activity (Keratinocyte [1]) | viability at 48 h, 1 µM [2] [%] | Kd [3] [µM] | Kd [4] [µM] | Activity [5] [a.u.] | Activity (Keratinocyte [7]) | fold change (FC) [8] |
| --- | --- | --- | --- | --- | --- | --- | --- | --- | --- |
| – | – | NC(=O)c1cccc(-c2ccccc2NCC2CCNCC2)c1 | Non-Toxic | 106 | 4.1 | – | – | – | – |
| – | – | COCCOCCC(=O)N(C)Cc1ccccc1 | – | – | – | 2.3 | – | – | – |
| Active | 5.2 | NC(=O)c1cccc(-c2ccccc2NCC2CCN(C(=O)CCOCCOCCOCCOCCNC(=O)CCCC[C@H]3SC[C@H]4NC(=O)N[C@H]43)CC2)c1 | Non-Toxic | 101 | – | 39 | 0.004 | inactive | 175 |
| – | – | COCCOCCC(=O)N1CCC(CNc2ccccc2-c2cccc(C(N)=O)c2)CC1 | – | – | – | 44 | – | – | – |
